Measurements from patent US20100240074A1 (priority 2007, published 2010).

How the values were obtained:
Type in all cases: cell-based, Saccharomyces cerevisiae
[1] = tested on: barrier-free yeast; experiment: Cycloheximide sensitivity of barrier-free yeast; details: cycloheximide 50 ng/ml
[2] = tested on: MATa-type super barrier-free YKO strains; experiment: Cycloheximide sensitivity of MATa-type super barrier-free YKO strains; details: cycloheximide 25 ng/ml; all strains
Procedure: Instead of picking up the entire grown colonies with the 96-pin replicator, the grown colonies were picked up one by one (1 colony/strain) with a toothpick to transfer it onto new MATa selection agar medium, and culture at 30° C. for 7 days. Grown cells were picked up with a disposable 96-pin replicator, suspended in 100 μl of MATa selection liquid medium, and cultured at 25° C. for 2 to 7 days. Subsequently, the grown cells were transferred to a 384-well plate using a dispenser robot SHOTMASTER 3000.

[3] = tested on: parent strain (WT:BY4742); experiment: Evaluation of sensitivity to lovastatin (area score, ARS), parent strain; details: lovastatin concentration 100 μM, FIG. 4
Procedure: (§1) A lovastatin solution was added to a 96-well plate such that the concentration of lovastatin (Sigma-Aldrich, #M2147) was within the range of from 0.39 μM to 100 μM. A parent strain (WT:BY4742, Open Biosystems, #YSC1049) a partner strain for barrier-free YKO (BF:KE458), and a partner strain for super barrier-free YKO (SBF:KE513), which had been subjected to static culture at room temperature for 2 days, were added to the plate such that the final cell number was at a 2000-fold dilution, and then subjected to static culture at 30° C.
(§2) Thereafter, light absorbance thereof at 620 nm was measured over time using a plate reader (SUNRISE, manufactured by Tecan) for 48 hours. Calculation of the cell proliferation inhibiting activity was carried out using the area score method (ARS) described in Japanese Patent Application Laid-Open No. 2006-141298. In ARS, a larger value indicates a greater cell proliferation inhibiting activity.

[4] = tested on: partner strain for barrier-free YKO (BF:KE458); experiment: Evaluation of sensitivity to lovastatin (area score, ARS), barrier-free partner strain
Procedure: as §1, §2

[5] = tested on: partner strain for super barrier-free YKO (SBF:KE513); experiment: Evaluation of sensitivity to lovastatin (area score, ARS), super barrier-free partner strain
Procedure: as §1, §2

[6] = tested on: super barrier-free YKO (SBF-YKO) knockout strains; experiment: Identification of target molecule using super barrier-free YKO (sensitivity ranking by area score); details: lovastatin 3.125 μM
Procedure: Identification of a target molecule of lovastatin was conducted using the super barrier-free YKO (SBF-YKO) composed of 4,044 strains prepared as above. The SBF-YKO strains were inoculated into twelve 384-well plates (1 strain/well) in an ordered manner, and subjected to 3 to 7 days of static culture to equalize the number of cells across all strains. The cells were diluted 196-fold, thereby obtaining a cell dilution.
On the other hand, 384-well plates in which 20 μl of YPAD medium containing 3.9 μM lovastatin was added to each well, and 384-well plates in which 20 μl of lovastatin-free YPAD medium was added to each well were prepared. 5 μl of the obtained cell dilution was added to each well. By this operation, the cells were diluted 1000-fold and the compound concentration was adjusted to 3.125 μM.
(§3) These cells were cultured at 25° C., and light absorbance thereof at 650 nm was measured over time using a plate reader (SPECTRAMAX340PC384, Molecular Devices) from about 22 hours to 48 hours after the beginning of the culture. The area scores (ARS) were calculated based on the obtained data, thereby ranking the sensitivity.
In the same manner as in Example 6, identification of a target molecule of rapamycin was conducted using super barrier-free YKO (SBF-YKO). Each of the SBF-YKO strains was subjected to 3 to 7 days of static culture to equalize the number of cells across all strains. […]

[7] = tested on: barrier-free YKO (BF-YKO) knockout strains; experiment: Identification of target molecule using barrier-free YKO (sensitivity ranking by area score)
Procedure: Using the barrier-free YKO (BF-YKO) composed of 3,011 strains as prepared above, a target molecule of lovastatin was identified. The strains of BF-YKO were inoculated into twelve 384-well plates (1 strain/well) in an ordered manner. The static culture was performed for 3 to 7 days to equalize the number of cells across all strains. The cells were diluted 196-fold, thereby obtaining a cell dilution.
On the other hand, 384-well plates wherein 20 μl of YPAD medium containing 3.9 μM, 7.8 μM or 15.6 μM lovastatin was added to each well, and 384-well plates in which 20 μl of lovastatin-free YPAD medium was added to each well were prepared. 5 μl of the obtained cell dilution was added to each well. By this operation, the cells were diluted 1000-fold and the respective concentrations of the compound were adjusted to 3.125 μM, 6.25 μM and 12.5 μM.
as §3

[8] = tested on: commercially available YKO (Invitrogen, #95401.H2) knockout strains; experiment: Identification of target molecule using commercially available YKO collection (sensitivity ranking by area score)
Procedure: Identification of a target molecule of lovastatin was conducted in the same manner as in Example 7, except that commercially available YKO (Invitrogen, #95401.H2) composed of 4,847 strains was used instead of BF-YKO.
Identification of a target molecule of rapamycin was conducted in the same manner as in Example 9, except that commercially available YKO (Invitrogen, #95401.H2) composed of 4,847 strains was used instead of SBF-YKO and that the compound concentrations were changed to 10 nM, 12.5 nM and 15 nM.

[9] = tested on: parent strain (WT:BY4741); experiment: Evaluation of sensitivity to rapamycin (area score, ARS), parent strain; details: FIG. 5
Procedure: (§4) In the same manner as in Example 5, to confirm drug sensitivity of the barrier-free YKO (BF-YKO) and super barrier-free YKO (SBF-YKO), changes in sensitivity of the yeasts caused by the proliferation inhibiting effect of rapamycin were examined using a parent strain and a partner strain.
(§5) A rapamycin solution was added to a 96-well plate such that the concentration of rapamycin (Sigma-Aldrich, #R0395) was varied within the range of from 0.2 nM to 50 nM. A parent strain (WT:BY4741, Open Biosystems, #YSC1048), a barrier-free strain (BF:KE457), and a super barrier-free strain (SBF:KE477), which had been subjected to static culture at room temperature for 2 days, were added such that the final cell numbers was at a 1000-fold dilution, and then subjected to static culture at 30° C.
as §2

[10] = tested on: barrier-free strain (BF:KE457); experiment: Evaluation of sensitivity to rapamycin (area score, ARS), barrier-free strain; details: FIG. 5
Procedure: as §4, §5, §2

[11] = tested on: super barrier-free strain (SBF:KE477); experiment: Evaluation of sensitivity to rapamycin (area score, ARS), super barrier-free strain
Procedure: as §4, §5, §2

[12] = based on lovastatin concentrations at which an area score of about 10 was obtained

In the case of `C[C@@H]1C[C@@H]([C@H](O)CC2CC(=O)NC(=O)C2)C(=O)[C@@H](C)C1` [cycloheximide], the “growth in the presence of cycloheximide” value [1] is reported as “cannot grow” and the “growth in the presence of cycloheximide” value [2] is reported as “could not grow”.

In the case of `CC[C@H](C)C(=O)O[C@H]1C[C@@H](C)C=C2C=C[C@H](C)[C@H](CC[C@@H]3C[C@@H](O)CC(=O)O3)[C@H]21` [lovastatin], the “cell proliferation inhibiting effect” value [3] is reported as “only a slight cell proliferation inhibiting effect”, the “concentration at which maximum inhibiting activity was exhibited” value ([4]; FIG. 4) is reported as 50 µM and the “sensitization relative to the WT strain” value [4, 12] is reported as 8 times. The “concentration at which maximum inhibiting activity was exhibited” value ([5]; FIG. 4) was 25 µM, the “sensitization relative to the WT strain” value [5, 12] was 16 times and the “sensitivity of BTS1-knockout strain” value [6] was “most sensitive knockout strain”. For the same molecule, the “sensitivity of HMG1 gene knockout strain” value [6] was “high sensitivity”, the “sensitivity of HMG1 gene knockout strain” value ([7]; lovastatin 6.25 μM) was “high sensitivity” and the “sensitivity of HMG1 gene knockout strain” value ([7]; lovastatin 12.5 μM) was “high sensitivity”. For the same molecule, the “sensitivity of HMG1 gene knockout strain” value ([8]; lovastatin 3.125 μM) was “not found as a strain exhibiting sensitivity”, the “sensitivity of BTS1-knockout strain” value ([8]; lovastatin 3.125 μM and 12.5 μM) was “not found as a strain exhibiting sensitivity” and the “sensitivity of HMG1 gene knockout strain” value ([8]; lovastatin 12.5 μM) was “not found as a strain exhibiting sensitivity”.

For `CO[C@H]1C[C@@H]2CC[C@@H](C)[C@@](O)(O2)C(=O)C(=O)N2CCCC[C@H]2C(=O)O[C@H]([C@H](C)C[C@@H]2CC[C@@H](O)[C@H](OC)C2)CC(=O)[C@H](C)/C=C(\C)[C@@H](O)[C@@H](OC)C(=O)[C@H](C)C[C@H](C)/C=C/C=C/C=C/1C` [rapamycin], the “concentration at which maximum cell proliferation inhibiting effect was observed” value [9] was 50 nM, the “concentration at which maximum cell proliferation inhibiting effect was observed” value [10] was 50 nM and the “concentration at which maximum effect was exhibited” value ([11]; FIG. 5) was 6.25 nM. The “sensitization relative to the WT strain” value ([11]; based on rapamycin concentrations at which an area score of about 10 was obtained) was 8 times.
